Assay results reported in patent US20150258202A1, “ANTHOCYANIDIN COMPLEX FOR THE TREATMENT OF MULTIPLE MYELOMA” (priority 2012, published 2015).

Tests used:
[1] = Solubility of delphinidin chloride in aqueous cyclodextrin solutions (complexing); type: physicochemical; settings: pure water, cyclodextrin concentration 0; stirred 30° C. 20 h in the dark, filtered 0.22 μm
Description: A reversed-phase HPLC method was used to determine the delphinidin chloride content in the delphinidin-containing compositions.
In this example, the complexing of delphinidin by various cyclodextrins and the solubility of the complex in aqueous solution are investigated.
Neutral aqueous solutions were prepared comprising 10% by weight of the respective cyclodextrin.
Glass flasks were filled with 5 ml each of aqueous cyclodextrin solution and pure water. An excess of delphinidin chloride was then added.
The suspensions were stirred at 30° C. for 20 h in the dark. The suspension was then filtered through a membrane filter of 0.22 μm pore size.

[2] = Stability trials in aqueous solution (0.9% NaCl, 37° C., delphinidin content by HPLC); type: physicochemical; settings: 0.9% NaCl solution, dark
Description: To determine the delphinidin chloride content in the delphinidin-containing solutions, a reversed-phase HPLC method was used similar to the one already described above. The following reagents were used in this case:
The solutions were prepared at room temperature and subsequently stored in the dark at 37° C. in closed vials.
The delphinidin content was determined after 1, 2, 3 and 4 h. The table below gives the content determined as a percentage of the starting concentration stated above.
The determination of the delphinidin content in the samples was calculated with the aid of the Agilent ChemStation software using the calibration with the external standard described.

[3] = system: mouse myeloma cell line MOPC-315; test: FACS analysis of dead cells stained with propidium iodide; type: cell-based; settings: summary of BLI measurement and FACS analysis
From the text: 1. Test Line and Experimental Setup • In the in vitro experiments, the effect of the delphinidin+sulfobutyl ether β-cyclodextrin complex (delphinidin+SBEBCD below) and delphinidin on the mouse myeloma cell line MOPC-315 (ATTC catalog no. TIB-23) was investigated by BLI (=bioluminescence imaging) measurement and FACS (fluorescence activated cell sorting) analysis described below. The methods used (BLI measurement and FACS analysis) are known to those skilled in the art from patent and technical literature, for example, from the FACS-based patent DE 1815352 C1.

SMILES: Oc1cc(O)c2cc(O)c(-c3cc(O)c(O)c(O)c3)[o+]c2c1.[Cl-] [Delphinidin chloride]
- Delphinidin chloride (solubility achievable) [1]: 70 µg/mL
- Delphinidin content as a percentage of the starting concentration ([2]; 0 h): 100%
- Delphinidin content as a percentage of the starting concentration ([2]; 1 h): 8.3%
- Delphinidin content as a percentage of the starting concentration ([2]; 2 h): 6.5%
- Delphinidin content as a percentage of the starting concentration ([2]; 3 h): 5.6%
- Delphinidin content as a percentage of the starting concentration ([2]; 4 h): 5.1%
- Killing of myeloma cells in vitro [3]: kill human myeloma cells in vitro
- Dose dependence of cell killing ([3]; higher doses): virtually all cells are killed at higher doses
